Measurements: the supplement of paper PMC6045584
± gives the standard deviation of the averaged measurements.

Columns and labels:
AZD4547 = compound: COc1cc(CCc2cc(NC(=O)c3ccc(N4CC(C)NC(C)C4)cc3)n[nH]2)cc(OC)c1 [AZD4547]; assay: surviving fraction relative to DMSO-only wells; higher = less growth inhibition; settings: exposure time: 5 days
Procedure, shortened: (§1)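 Viability was scored with CellTiter-Glo luminescence and normalised to the median of DMSO-only wells as surviving fraction. Beforehand, log-phase tumour cell lines were seeded at 250–500 cells per well in 384-well plates, allowed 24 hours, and exposed continuously for five days to inhibitors at 0.5, 1, 5, 10, 50, 100, 500 and 1000 nM. Only lines whose three screens gave replicate Pearson r >0.7 and median Z' >0.3 were kept.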

MK2206 = compound: NC1(c2ccc(-c3nc4ccn5c(=O)[nH]nc5c4cc3-c3ccccc3)cc2)CCC1 [MK2206]; assay: as above; settings: exposure time: 5 days
Procedure, shortened: as §1

Test System | surviving fraction (AZD4547; 0.5 nM) | surviving fraction (AZD4547; 1 nM) | surviving fraction (AZD4547; 5 nM) | surviving fraction (AZD4547; 10 nM) | surviving fraction (AZD4547; 50 nM) | surviving fraction (AZD4547; 100 nM) | surviving fraction (AZD4547; 500 nM) | surviving fraction (AZD4547; 1000 nM) | surviving fraction (MK2206; 0.5 nM) | surviving fraction (MK2206; 1 nM) | surviving fraction (MK2206; 5 nM) | surviving fraction (MK2206; 10 nM) | surviving fraction (MK2206; 50 nM) | surviving fraction (MK2206; 100 nM) | surviving fraction (MK2206; 500 nM) | surviving fraction (MK2206; 1000 nM)
HCC38 BREAST | 0.972 ± 0.24 | 0.947 ± 0.062 | 1.02 ± 0.2 | 1.11 ± 0.22 | 0.78 ± 0.14 | 0.801 ± 0.14 | 0.66 ± 0.11 | 0.785 ± 0.046 | 1.36 ± 0.11 | 1.33 ± 0.26 | 1.36 ± 0.073 | 1.32 ± 0.12 | 1.32 ± 0.23 | 1.15 ± 0.083 | 1.11 ± 0.048 | 0.898 ± 0.12
HCC70 BREAST | 1.03 ± 0.11 | 1.12 ± 0.082 | 1.16 ± 0.045 | 1.14 ± 0.07 | 1.1 ± 0.091 | 1.15 ± 0.018 | 1.03 ± 0.098 | 0.946 ± 0.093 | 1.03 ± 0.063 | 1.1 ± 0.08 | 1.13 ± 0.11 | 1.1 ± 0.12 | 0.93 ± 0.076 | 0.869 ± 0.094 | 0.39 ± 0.033 | 0.312 ± 0.014
HCC78 LUNG | 1.04 ± 0.2 | 1.14 ± 0.23 | 1.03 ± 0.13 | 0.986 ± 0.11 | 1.08 ± 0.039 | 1.13 ± 0.25 | 1.11 ± 0.25 | 1.1 ± 0.25 | 0.785 ± 0.17 | 0.975 ± 0.05 | 1.12 ± 0.2 | 0.998 ± 0.21 | 0.848 ± 0.073 | 0.529 ± 0.13 | 0.33 ± 0.14 | 0.192 ± 0.076
HCC202 BREAST | 0.984 ± 0.2 | 1.17 ± 0.39 | 0.964 ± 0.22 | 1.04 ± 0.26 | 1.31 ± 0.41 | 1.16 ± 0.1 | 1.52 ± 0.38 | 1.18 ± 0.21 | 1.07 ± 0.091 | 1.08 ± 0.12 | 1.2 ± 0.16 | 1.2 ± 0.074 | 0.699 ± 0.37 | 0.688 ± 0.035 | 0.238 ± 0.012 | 0.238 ± 0.0064
HCC1806 BREAST | 1.04 ± 0.14 | 1.08 ± 0.048 | 1.12 ± 0.063 | 1.14 ± 0.06 | 1.16 ± 0.11 | 1.13 ± 0.05 | 0.996 ± 0.078 | 1 ± 0.17 | 1.02 ± 0.074 | 1.1 ± 0.021 | 1.15 ± 0.19 | 1.14 ± 0.05 | 1.05 ± 0.072 | 1.02 ± 0.099 | 0.828 ± 0.013 | 0.682 ± 0.015
HCC1954 BREAST | 0.677 ± 0.04 | 0.711 ± 0.052 | 0.84 ± 0.087 | 1.01 ± 0.12 | 0.956 ± 0.023 | 0.887 ± 0.069 | 1.0088 ± 0.00035 | 1 ± 0.1 | 1.06 ± 0.16 | 0.988 ± 0.088 | 1.14 ± 0.14 | 1.18 ± 0.13 | 0.896 ± 0.035 | 0.9938 ± 0.0039 | 0.482 ± 0.082 | 0.304 ± 0.0067
HCT15 LARGE INTESTINE | 1.03 ± 0.026 | 1.07 ± 0.029 | 1.03 ± 0.042 | 1.07 ± 0.048 | 1.03 ± 0.042 | 1.08 ± 0.033 | 1.1 ± 0.044 | 1.1 ± 0.041 | 1.04 ± 0.042 | 1.07 ± 0.048 | 1.08 ± 0.052 | 1.07 ± 0.064 | 1.02 ± 0.063 | 1.07 ± 0.025 | 0.942 ± 0.073 | 0.928 ± 0.026
HELA CERVIX | 1.04 ± 0.023 | 1.09 ± 0.035 | 1.07 ± 0.036 | 1.1 ± 0.032 | 1.08 ± 0.013 | 1.07 ± 0.03 | 1.08 ± 0.092 | 1.11 ± 0.13 | 1.03 ± 0.037 | 1.15 ± 0.043 | 1.12 ± 0.073 | 1.09 ± 0.12 | 1.02 ± 0.057 | 1.09 ± 0.035 | 1.08 ± 0.031 | 1.19 ± 0.051
HMLE3 BREAST | 0.986 ± 0.082 | 0.959 ± 0.04 | 0.882 ± 0.05 | 0.79 ± 0.025 | 0.57 ± 0.046 | 0.455 ± 0.053 | 0.418 ± 0.064 | 0.379 ± 0.032 | 1.06 ± 0.11 | 1.13 ± 0.047 | 1.08 ± 0.01 | 1.09 ± 0.044 | 0.895 ± 0.14 | 0.843 ± 0.098 | 0.717 ± 0.052 | 0.617 ± 0.018
HMT3552 BREAST | 1.06 | 1.09 | 1.01 | 0.895 | 1.03 | 1.04 | 0.852 | 0.888 | 1.05 ± 0.029 | 1.05 ± 0.02 | 1.1 ± 0.03 | 1.02 ± 0.033 | 1.03 ± 0.041 | 0.909 ± 0.076 | 0.692 ± 0.02 | 0.62 ± 0.014
HOS BONE | 1 ± 0.027 | 1.04 ± 0.011 | 1.04 ± 0.037 | 1.1 ± 0.042 | 1 ± 0.019 | 0.987 ± 0.021 | 0.9247 ± 0.0092 | 0.802 ± 0.039 | 1.02 ± 0.013 | 1.03 ± 0.026 | 1.03 ± 0.0087 | 1.05 ± 0.038 | 0.978 ± 0.021 | 0.948 ± 0.021 | 0.822 ± 0.038 | 0.79 ± 0.012
HOSMNG BONE | 1.01 ± 0.088 | 0.996 ± 0.12 | 1.02 ± 0.1 | 1.03 ± 0.035 | 0.964 ± 0.12 | 0.9967 ± 0.0029 | 0.945 ± 0.087 | 1.04 ± 0.097 | 0.865 ± 0.1 | 0.936 ± 0.1 | 0.907 ± 0.082 | 0.846 ± 0.1 | 0.773 ± 0.076 | 0.802 ± 0.15 | 0.752 ± 0.064 | 0.678 ± 0.027
HS57T BREAST | 1.02 ± 0.051 | 1.01 ± 0.031 | 0.938 ± 0.04 | 0.829 ± 0.05 | 0.687 ± 0.029 | 0.744 ± 0.043 | 0.679 ± 0.035 | 0.628 ± 0.045 | 0.979 ± 0.037 | 1 ± 0.07 | 1.02 ± 0.051 | 1.07 ± 0.056 | 0.962 ± 0.013 | 0.938 ± 0.05 | 0.747 ± 0.012 | 0.658 ± 0.092
HS578T BREAST | 0.986 ± 0.061 | 1.05 ± 0.06 | 1.04 ± 0.025 | 1.01 ± 0.04 | 0.966 ± 0.056 | 0.94 ± 0.036 | 0.871 ± 0.03 | 0.911 ± 0.039 | 1.06 ± 0.17 | 1 ± 0.084 | 1.02 ± 0.087 | 1.04 ± 0.15 | 1.03 ± 0.19 | 0.829 ± 0.08 | 0.652 ± 0.064 | 0.618 ± 0.028
HSSYII SYNOVIAL | 0.872 ± 0.069 | 0.813 ± 0.031 | 0.606 ± 0.04 | 0.434 ± 0.0065 | 0.295 ± 0.015 | 0.302 ± 0.0015 | 0.259 ± 0.0075 | 0.24 ± 0.013 | 0.937 ± 0.019 | 0.9935 ± 0.0096 | 0.93 ± 0.042 | 0.984 ± 0.043 | 0.903 ± 0.059 | 0.921 ± 0.037 | 0.773 ± 0.024 | 0.738 ± 0.032
HT1080 SOFT TISSUE | 1.04 ± 0.048 | 1.03 ± 0.025 | 1.01 ± 0.031 | 1 ± 0.0068 | 0.979 ± 0.016 | 0.9753 ± 0.0087 | 0.936 ± 0.03 | 0.817 ± 0.065 | 1.04 ± 0.028 | 1.02 ± 0.018 | 1.04 ± 0.018 | 1.06 ± 0.043 | 1.05 ± 0.026 | 1.05 ± 0.012 | 0.997 ± 0.049 | 0.951 ± 0.044
